Laboratory results as given in patent publication US8129544B2, “1-substituted-4-nitroimidazole compound and method for preparing the same” (Otsuka Pharmaceutical Co., Ltd., priority 2002, dated 2012).
In brackets after ≈: the same amount, converted by molar mass.

Columns and labels:
[1] = test system: Mycobacterium tuberculosis H37RV; assay: Antibiotic test by using an agar plate dilution method; assay type: cell-based; conditions: 336 h, Culture medium 7H11, inoculum about 10^6 CFU/ml (5 μl), cultivated at 37° C. for 14 days, read-out: Minimum inhibitory concentration

In the case of `C[C@]1(Cn2cc([N+](=O)[O-])nc2Cl)CO1`, the melting point is reported as 65.5 to 67 °C.

Work on `C[C@]1(CN2CCN(c3ccc(OC(F)(F)F)cc3)CC2)Cn2cc([N+](=O)[O-])nc2O1` [Reference Example 7, (S)-2-[4-(4-trifluoromethoxyphenyl)piperazin-1-ylmethyl]-2-methyl-6-nitro-2,3-dihydroimidazo[2,1-b]oxazole] yielded an MIC [1] of 0.024 µg/mL (≈ 0.0562 µM) and a melting point of 129 to 130 °C.

Work on `C[C@]1(Cn2cc([N+](=O)[O-])nc2Br)CO1` yielded a melting point of 93 to 94 °C.

With `C[C@@]1(Cn2cc([N+](=O)[O-])nc2Br)CO1` the melting point was 93 to 94 °C.
